The values that follow come from ChEMBL document CHEMBL1147038, “Structural basis for the specific inhibition of protein kinase G, a virulence factor of Mycobacterium tuberculosis” (Proc Natl Acad Sci U S A, 2007).

The source made the active and inactive calls. The calls are words filed in the database; no cut-off is given here.

The subject of assay [1] is Mycobacterium tuberculosis. Put plainly: Inhibition of Mycobacterium tuberculosis PKnGdeltaN mutant at 63 uM by autoradiography.
The test system of assay [2] is Mycobacterium tuberculosis. Put plainly: Inhibition of Mycobacterium tuberculosis PKnG-I87S/A92S mutant at 25 uM by autoradiography.

By inhibition is commonly meant the share of the control response that was lost under treatment. Low values mean a weak effect, high ones a strong effect. For the compound `NC(=O)c1c(NC(=O)C2CC2)sc2c1CCCC2`, the result in assay [1] was Active. In addition, the inhibition in assay [2] was over 50%.
